# Test results from patent publication US20240183860A1, “Chimeric ABC Transporters and Screening Methods” (Genentech, Inc., priority 2021, published 2024).
# Entries after “also recorded” stand apart in the source; their conditions may differ. Bridge positions count the residues as written; N and C are the ends. Square brackets hold non-standard residues; d marks the D form. Peptide text beside a SMILES is read from it. NMeF = CN[C@@H](Cc1ccccc1)C(=O)O
# Assays:
# E. coli MsbA (EcMsbA) = target: T1, E. coli MsbA (EcMsbA) (Escherichia coli, UniProt P60752); assay: MsbA ATPase assay (Transcreener ADP2 FP); assay type: biochemical
# T1 construct: FLAG (N); made in house; host or cells: E. coli (strain for the WT protein not restated)
# T1 sequence (P60752 whole entry): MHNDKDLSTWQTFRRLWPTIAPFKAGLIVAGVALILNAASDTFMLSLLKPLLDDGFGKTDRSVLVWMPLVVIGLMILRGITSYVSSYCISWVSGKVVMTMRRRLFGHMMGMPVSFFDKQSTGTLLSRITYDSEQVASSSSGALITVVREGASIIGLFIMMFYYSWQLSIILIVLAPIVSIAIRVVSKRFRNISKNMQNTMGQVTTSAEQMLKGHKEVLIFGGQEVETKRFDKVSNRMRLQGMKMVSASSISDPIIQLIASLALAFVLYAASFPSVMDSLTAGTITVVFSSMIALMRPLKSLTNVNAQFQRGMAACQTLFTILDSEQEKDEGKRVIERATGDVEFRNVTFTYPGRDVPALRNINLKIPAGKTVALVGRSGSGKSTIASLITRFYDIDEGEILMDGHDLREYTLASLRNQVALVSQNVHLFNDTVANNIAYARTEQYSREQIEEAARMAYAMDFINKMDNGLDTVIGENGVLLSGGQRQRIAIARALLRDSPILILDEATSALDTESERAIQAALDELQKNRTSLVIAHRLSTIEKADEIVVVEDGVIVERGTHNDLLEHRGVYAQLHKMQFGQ
# Procedure: (§1) The ATPase activity of MsbA was measured using a Transcreener ADP2 FP Assay (BellBrook Labs). […] The final condition for the reaction was MsbA enzyme, 50 μM ATP in 50 mM Tris pH 7.5, 10 mM MgCl2, 1% glycerol, 0.1% bovine gamma globulin, 1 mM dithiothreitol (DTT), 0.007% Brij-35 and 0.5% dimethylsulfoxide (DMSO). The following concentrations were used for each MsbA variant: 5 nM of EcMsbA, EnMsbA, KpMsbA and 80 nM PaMsbA reconstituted in amphipol, 15 nM EcMsbA and EcMsbA-chim5 in LMNG detergent, 22 nM EcMsbA and 27 nM EcMsbA-12G7 complex in aDDM detergent. The enzyme reaction was incubated for 1 hour at room temperature, then quenched by adding the Transcreener Detection Buffer. The IC50 was determined by fitting the inhibition dose-response curve with a nonlinear four-parameter inhibition model (GraphPad Prism).
# [1] = target: T2, EcMsbA-chim5 (MsbA-chimera5) (Escherichia coli, UniProt P60752, D53T/D54Y/D60K/DEL268-292/DEL57-57/F265A/G55I/I169L/INS266IAYAGNRVIHEDMRSGALIAFIAAL/INS66P/K49D/K58D/L171A/L263V/L51V/L52I/M159V/M67L/P68V/S164D/S62H/T59E/V63D/Y163E); assay: biochemical; assay type: biochemical
# T2 construct: FLAG (N); made in house; host or cells: E. coli Rosetta 2 (DE3), pET-52b vector
# T2 sequence (P60752 with tags, fused parts or gaps with the stated changes): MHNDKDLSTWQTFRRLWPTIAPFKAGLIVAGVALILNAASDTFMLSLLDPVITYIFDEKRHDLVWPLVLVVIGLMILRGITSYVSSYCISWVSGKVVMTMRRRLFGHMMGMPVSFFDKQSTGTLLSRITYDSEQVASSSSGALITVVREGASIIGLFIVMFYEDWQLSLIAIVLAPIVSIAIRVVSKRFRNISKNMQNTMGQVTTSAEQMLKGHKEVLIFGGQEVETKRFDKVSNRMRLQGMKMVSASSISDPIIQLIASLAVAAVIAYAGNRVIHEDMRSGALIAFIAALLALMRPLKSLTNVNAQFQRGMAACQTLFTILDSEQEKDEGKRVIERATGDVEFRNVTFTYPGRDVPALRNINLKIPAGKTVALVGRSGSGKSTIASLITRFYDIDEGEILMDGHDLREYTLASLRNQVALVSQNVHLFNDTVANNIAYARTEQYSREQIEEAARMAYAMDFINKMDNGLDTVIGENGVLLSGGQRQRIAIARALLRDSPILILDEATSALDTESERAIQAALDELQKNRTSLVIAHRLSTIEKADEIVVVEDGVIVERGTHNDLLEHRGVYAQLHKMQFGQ
# Procedure: as §1
# [2] = test system: EcMsbA-chim5 (MsbA-chimera5); assay: biochemical; assay type: biochemical, Escherichia coli; settings: ratio of ATPase IC50s
# Procedure: as §1
# [3] = target: Enterobacter cloacae MsbA (EnMsbA); assay: MsbA ATPase assay, amphipol-reconstituted homologue; assay type: biochemical; settings: FIGS. 13A, 13C
# Procedure: as §1
# [4] = target: Klebsiella pneumoniae MsbA (KpMsbA); assay: as above; assay type: biochemical; settings: FIGS. 13A, 13C
# Procedure: as §1
# [5] = target: T3, Pseudomonas aeruginosa MsbA (PaMsbA) (Pseudomonas aeruginosa, UniProt Q9HUG8); assay: as above; assay type: biochemical
# T3 construct: FLAG; made in house; host or cells: not restated ('similarly expressed')
# T3 sequence (Q9HUG8 1-603): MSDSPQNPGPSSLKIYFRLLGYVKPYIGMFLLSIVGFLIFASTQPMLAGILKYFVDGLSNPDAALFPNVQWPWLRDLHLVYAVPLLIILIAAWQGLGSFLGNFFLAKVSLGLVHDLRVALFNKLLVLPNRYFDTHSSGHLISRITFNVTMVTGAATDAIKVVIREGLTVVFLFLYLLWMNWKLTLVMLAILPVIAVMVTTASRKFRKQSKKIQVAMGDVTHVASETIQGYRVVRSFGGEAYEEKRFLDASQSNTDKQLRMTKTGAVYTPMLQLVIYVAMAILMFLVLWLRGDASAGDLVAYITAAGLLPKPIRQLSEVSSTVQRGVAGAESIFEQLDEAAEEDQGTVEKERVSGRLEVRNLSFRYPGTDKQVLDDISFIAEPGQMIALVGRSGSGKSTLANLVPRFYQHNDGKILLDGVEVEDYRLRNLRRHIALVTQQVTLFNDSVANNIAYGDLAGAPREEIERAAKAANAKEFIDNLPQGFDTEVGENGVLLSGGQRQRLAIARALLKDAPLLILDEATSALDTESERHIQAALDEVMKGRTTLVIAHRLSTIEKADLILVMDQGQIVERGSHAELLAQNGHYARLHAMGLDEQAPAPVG
# Procedure: as §1
# [6] = test system: WT E. coli cells with an intact outer membrane (CFT073, UPEC WT); assay: Cellular IC50 determination (BacTiter-Glo, 6 hours); assay type: cell-based, Escherichia coli
# Procedure: The cellular IC50's of various bacterial strains (Table 2) were determined.
# 200 nL aliquots of eight 2-fold dilutions of each compound were dispensed in duplicate into 384-well plates using an Echo Liquid Handler (Labcyte). Strains were grown in cation-adjusted Mueller Hinton Broth with 0.002% Tween overnight for 16 hours, washed with PBS, resuspended at OD600=1 in cation-adjusted Mueller Hinton Broth with 0.002% Tween and 10% glycerol, and frozen in […] aliquots. For each experiment, aliquots were thawed on ice and diluted 1:1000 into cation-adjusted Mueller Hinton Broth with 0.002% Tween. 10 μL cells/well were added to 384-well plates containing compound. Plates were incubated for 6 hours at 37° C., then 10 μL BacTiter-Glo reagent (Promega) was added to each well and luminescence was measured. IC50's were calculated using Genedata Screener software.
# [7] = test system: imp E. coli (lptD(imp4213)), E. coli MsbA; assay: Broth MIC assay; assay type: cell-based, Escherichia coli; settings: cells containing the lptD(imp4213) allele
# Procedure: Broth MICs were determined in cation-adjusted Mueller-Hinton broth with 0.002% Tween-80, as previously described (Ho et al., 2018).
# [8] = test system: E. coli CFT073 lptD(imp4213) cells; assay: Electron microscopy of inhibitor-exposed cells (membrane phenotype, LPS transport); assay type: cell-based, Escherichia coli
# Text: In some embodiments, one or more functional assays may be performed to test the effect of molecules identified in a screen on the function of the parental ABC transporter. For example, in some cases, a molecule that binds to the periplasmic, extracellular, and/or luminal face of an ABC transporter acts as an inhibitor of the transporter. For example, if inhibition of an ABC transporter activity is expected to result in loss of cell viability or reduction of cell growth, for example, then a cell viability or growth assay can be conducted to determine if presence of the identified molecule affects these parameters. In some cases, other assays may be conducted to determine the impact of a molecule on the function of the transporter. In some cases, the transport of the transporter's substrate in the presence and absence of the molecule can be tested. […] Lack of LPS transport causes a stacking of inner and outer membranes at the surface of a bacterial cell that is clearly visible by EM. Appropriate functional assays for the ABC transporter in question are known or may be readily developed based on knowledge in the art.
# Electron microscopy of E. coli CFT073 lptD(imp4213) or CFT073 lptD(imp4213) msbA-cond-ko cells rescued with pLMG18 plasmids expressing the indicated E. coli MsbA mutants was performed as described previously (Ho et al., 2018). […]
smiles,measurement,setting,value
CC(C)C[C@@H]1NC(=O)[C@H](Cc2c[nH]c3ccccc23)NC(=O)[C@H](Cc2c[nH]c3ccccc23)NC(=O)[C@H](Cc2ccccc2)NC(=O)CSC[C@@H](C(=O)NCC(N)=O)NC(=O)[C@H](C(C)C)NC(=O)[C@H](Cc2ccccc2)N(C)C(=O)[C@H](Cc2c[nH]c3ccccc23)NC(=O)[C@H](Cc2c[nH]c3ccccc23)NC(=O)[C@H](CO)NC(=O)[C@H](C(C)C)NC(=O)[C@H](CC(=O)O)NC(=O)[C@H](CC(=O)O)NC(=O)[C@H](Cc2c[nH]c3ccccc23)NC1=O [Compound G1118] ({CH2CO}-FWWLWDDVSWW[NMeF]VCG-NH2; thioether N-14),IC50,"E. coli MsbA (EcMsbA); IC50 for binding to MsbA in an imp E. coli strain, worded as binding to MsbA in imp E. coli strain (outer membrane permeable), FIG. 3F",5 nM
same,IC50,"E. coli MsbA (EcMsbA); half-maximum inhibitory concentration (IC50), ATPase activity of EcMsbA, purified WT EcMsbA, FIG. 3C",~110 nM
same,IC50,[1],> 5000 nM
same,lower potency on purified MsbA-chim5 versus EcMsbA,[2],> 30 fold
same,IC50,[3],~240 nM
same,IC50,[4],~120 nM
same,IC50,[5],3100 nM
same,activity on WT E. coli with an intact outer membrane,[6],no activity was observed
same,minimum inhibitory concentration (MIC),[7],~210 µg/mL
same,LPS transport activity of E. coli MsbA,[8],inhibit LPS transport activity
same,inner membrane elaboration / membrane stacking phenotype,"[8]; electron micrographs, imp cells treated with inhibitor",gave rise to the distinctive inner membrane elaboration phenotype; also recorded: mirrored the distinctive inner membrane elaboration phenotype
